These results are taken from patent publication US10300143B2, “Compositions for treating cancer and methods for making the same” (THE BRIGHAM AND WOMEN'S HOSPITAL, INC., priority 2012, dated 2019).

The subject of series [1] is Lewis lung carcinoma (LLC) cells. Kind of series: Cell viability assay (MTS), platinates. Conditions: 48 h. It is filed as cell-based. As to the method:
(§1) The LLC cells, breast cancer cell line (4T1), and hepatocellular carcinoma cells (CP20) were seeded into 96-well flat bottomed plates (4×10^3 cells per well). Drugs or SACNs were added at equivalent Pt concentrations and incubated for 48 h. Viability was quantified using the Cell-Titer 96 Aqueous One Solution™ reagent. Cellular apoptosis was quantified using Annexin-V-Alexa Fluor™ 488 conjugate and propidium iodide staining followed by FACS.
(§2) The Lewis lung carcinoma (LLC) cells, breast cancer cell line (4T1), and hepatocellular carcinoma cells (CP20) were purchased from American Type Culture Collection. LLC cells and CP20 cells were cultured in DMEM and 4T1 cells were cultured in RPMI medium 1640-supplemented with 10% FBS, 50 unit/mL penicillin, and 50 unit/mL streptomycin. Trypsinized cultured LLC, 4T1, and CP20 cells were washed twice with PBS and seeded into 96-well flat-bottomed plates (4×10^3 cells per well). Free drugs and SACNs were added at appropriate concentrations (0.01, 0.1, 1, 10, 20, 50 μM Pt concentration). […] After 2 h incubation in 5% CO2 atmosphere at 37° C., the absorbance in each well was recorded at 490 nm using an Epoch (BioTek™) plate reader. Results were quantified by subtracting the blank value from each value then normalizing against the control values and results were analyzed by using Prism™ software (GraphPad). […]

Series [2] deals with 4T1 breast cancer cell line. The series is described as follows: Cell viability assay (MTS), platinates. It is filed as cell-based, murine. The settings on record: 48 h. As to the method: as §1, §2
A further series concerns 4T1 breast tumors. How it is done: The 4T1 breast cancer cells (3×10^5) were implanted subcutaneously in the flanks of 4-wk-old BALB/c mice. […] PBS (100 μL) by tail-vain injection was used as a control for drug treatment. Treatment was started on day 9 postimplantation, and administered every alternate day till day 13. The tumor volumes and body weights were monitored on a daily basis. The tumor volume was calculated by using the formula, L×B^2.
The tissues were fixed in 10% formalin, paraffin-embedded, and sectioned at the Harvard Medical School Core Facility. Tumor and kidney paraffin sections were deparaffinized and stained with a standard TMR red fluorescent TUNEL kit following the manufacturer's protocol (In Situ Cell Death Detection Kit™, TMR-Red; Roche). The kidney sections were also immunolabeled for KIM1 expression. Images were obtained using a Nikon Eclipse TE2000™ fluorescence microscope equipped with red filter.
The 4T1 breast cancer cells (3×105) were implanted subcutaneously in the flanks of 4-wk-old BALB/c mice (weighing 20 g; Charles River Laboratories). The drug therapy was started on day 9. […] PBS (100 μL) administered by tail-vain injection was used as a control for drug treatment. The tumor volumes and body weights were monitored on a daily basis. The tumor volume was calculated by using the formula, L×B2, where the longest diameter was considered as L and the shortest diameter as measured using a vernier caliper as B. The animals were killed when the average tumor volume of the control exceeded 2,000 mm3 in the control group. The tumors were harvested immediately following sacrifice and stored in 10% formalin for further analysis. All animal procedures were approved by the Harvard Institutional Use and Care of Animals Committee.
The tissues were fixed in 10% formalin, paraffin-embedded, and sectioned at the Harvard Medical School Core Facility. Tumor and kidney paraffin sections were deparaffinized and stained with standard TMR red fluorescent TUNEL kit following the manufacturer's protocol (In Situ Cell Death Detection Kit™, TMR-Red; Roche). Images were obtained using a Nikon Eclipse TE2000 fluorescence microscope equipped with red filter.

The test system of series [3] is cisplatin-resistant hepatocellular carcinoma (7404-CP20) cell line. Kind of series: Cell viability assay (MTS), platinates. It is filed as cell-based, human. The settings on record: 48 h. How it is done:
as §1, §2

Another series has as its system 4T1 cells. The series is described as follows: FACS analysis of apoptosis (Annexin-V/PI). Conditions: 1 μM Pt, 24 h. It is filed as cell-based, murine. How it is done:
The LLC cells, breast cancer cell line (4T1), and hepatocellular carcinoma cells (CP20) were seeded into 96-well flat bottomed plates (4×10^3 cells per well). Drugs or SACNs were added at equivalent Pt concentrations and incubated for 48 h. Viability was quantified using the Cell-Titer 96 Aqueous One Solution™ reagent. Cellular apoptosis was quantified using Annexin-V-Alexa Fluor™ 488 conjugate and propidium iodide staining followed by FACS. […] After 24 h, the cells were washed with PBS and collected at 0° C. The cells were then treated with Annexin-V-Alexa Fluor 488™ conjugate (Molecular Probes, Invitrogen) and incubated in the dark, at room temperature, for 15 min. The cells were then washed with PBS and incubated with propidium iodide (PI) solution ([…]; Sigma) containing RNase (1 mg/mL; Sigma). The cell suspension were then transferred to FACS tubes and analyzed for Annexin-V/PI staining on a BD FACS Calibur™ instrument. Data were analyzed using a CellQuestPro™ software (BD Biosciences).
(Flow cytometry measures light scatter and fluorescence of single cells or particles in a stream.)

A short description of series [4]: Maximum tolerated dose (20% body weight loss). In kind it is in vivo, BALB/c mice.
The subject of series [5] is K-Ras^LSL/+/Pten^fl/fl ovarian cancer. Kind of series: In vivo K-ras^LSL/+/Pten^fl/fl ovarian cancer model, platinates. On the set-up: species or system mice. Conditions: Pt dose equivalent to 3 mg/kg of cisplatin.
[6] abbreviates: single dose, Pt equivalent to 8 mg/kg cisplatin.

Like-named read-outs stand apart in the source and are kept apart here.

As to `N.N.O=C([O-])C1(C(=O)[O-])CCC1.[Pt+2]` [carboplatin], the “inhibitory activity (cell viability)” value in series [1] and in series [2] was “In neither of these cell lines did carboplatin exert any inhibitory activity at this concentration range” each time. Also, in the series with 4T1 breast tumors (setting [6]), the survival result is listed as “only minor increase in survival over vehicle-treated controls”.

With `N.N.[Cl][Pt][Cl]` [cisplatin, cis-dichlorodiamineplatinum (II)], the results for the IC50 in series [1], in series [2] and in series [3] were 2910 ± 15 nM, 4.72 ± 0.016 µM and 42.84 ± 0.04 µM, respectively. In addition, the apoptosis and necrosis result in the series with 4T1 cells is given as “more efficacious than carboplatin”. In addition, the “maximum tolerated dose (MTD)” value in series [4] is on record as 9 mg/kg. Also, the tumor growth entry in the series with 4T1 breast tumors (multiple dose, 1 and 3 mg/kg, days 9, 11, 13) is on record as “dose-dependent inhibition of tumor growth”. The survival result with 4T1 breast tumors (multiple dose, higher dose) is “increase survival”; with 4T1 breast tumors (setting [6]) it was “only minor increase in survival over vehicle-treated controls”. The tumor inhibition result with 4T1 breast tumors (multiple dose, highest doses (3 mg/kg Pt)) was “identical”; in the series with 4T1 breast tumors (multiple dose, lower doses (1 mg/kg Pt)), “greater tumor inhibition as opposed to the higher dose of carboplatin”. Besides, the “kidney cell death (TUNEL)” value in series [5] is on record as “induced apoptosis of nephrons”. For the same molecule, the “tumor apoptosis (TUNEL)” value in series [5] is reported as “apoptosis”.
